# Measurements taken from paper PMC6433232, “Targeting mitochondria in cancer therapy could provide a basis for the selective anti-cancer activity” (PLoS ONE, 2019).
# Tested on: breast carcinoma HCC1187 cells
# Test: cells
# Type: cell-based
# Settings: Homo sapiens, HCC1187, read-out: LC50 HCC1187
# Excerpt: For further analyses, we used compounds that have the selective cytotoxicity index either above 20 (non-toxic compounds) or below 1 (toxic compounds) with the aim to identify targets that are responsible for the selective activity of the identified compounds toward cancer cells. To confirm that the effects of the selected compounds are not only specific to MIA PaCa-2 cells, we evaluated their cytotoxic activities on breast carcinoma HCC1187 cells (Table 1). […] For easy comparison, the data with MIA PaCa-2 cells were also included in Table 1. […] We also noticed that, again with a few exceptions, HCC1187 cells are more resistant to the non-toxic compounds in the presence of ATO as compared to MIA PaCa-2 cells. In contrast, HCC1187 cells are more sensitive to all toxic compounds in the presence of ATO as compared to MIA PaCa-2 cells. The high sensitivity of HCC1187 cells to toxic compounds contributed to the increased selective cytotoxicity index.
row,Compound,CC50 [µM]
1,CC1=C(N2CC2)C(=O)c2ccccc2C1=O [compound 55],51.8
2,COC1=C(N2CC2)C(=O)c2ccccc2C1=O [compound 54],18.2

# Same assay, conditions: Homo sapiens, HCC1187; compound alone; unit not given in Table 1; read-out: LC50 HCC1187
row,Compound,CC50 [µM]
1,CCCC(=O)NC1=C(Cl)C(=O)c2ccccc2C1=O [compound 31],1
2,"O=C1C(Nc2ccccc2)=CC(=O)c2ncccc21 [compound 67, reference compound]",3
3,CCCCCCCNC1=C(Cl)C(=O)c2ccccc2C1=O [compound 8],56.1
4,COCCNC1=C(Cl)C(=O)c2ccccc2C1=O [compound 21],5.2
5,Cc1ccccc1NC1=C(Cl)C(=O)c2ccccc2C1=O [compound 40],9
6,COC1=C(N(C)C)C(=O)c2ccccc2C1=O [compound 53],> 90

# Same assay, conditions: human
row,Compound,Selective cytotoxicity index HCC 1187 ATO
1,COC1=C(N(C)C)C(=O)c2ccccc2C1=O [compound 53],9.5
2,CC1=C(N2CC2)C(=O)c2ccccc2C1=O [compound 55],15.8
3,COC1=C(N2CC2)C(=O)c2ccccc2C1=O [compound 54],40.9

# Tested on: MIA PaCa-2 cells
# Test: Hydrogen peroxide cell-based assay (ROS induction), MIA PaCa-2 cells
# Settings: Homo sapiens, hydrogen peroxide level relative to DMSO-treated cells (100%), read-out: ROS increase, % MIA PaCa-2
# Procedure: Cells were incubated for 2 h with either compounds (30 μM) or DMSO in a 96-well plate. After the treatment, 80 μl of cell culture medium was collected and the level of hydrogen peroxide was determined using a Hydrogen Peroxide Cell-Based Assay kit (Cayman).
# Cells were incubated with the compounds for 4 h and the level of ROS induction was measured by a hydrogen peroxide cell-based assay kit. Compounds were assayed at a fixed concentration of 30 μM and the measured level of hydrogen peroxide was expressed as percentage in relation to DMSO-treated cells (100%). […] This distinction was more evident for compounds with the highest selective cytotoxicity index. […] We conclude that the selective induction of ROS in cancer cells is required but not sufficient factor for the selective anti-tumor activity.
row,Compound,activity at 30 µM [%]
1,CCCC(=O)NC1=C(Cl)C(=O)c2ccccc2C1=O [compound 31],251
2,"O=C1C(Nc2ccccc2)=CC(=O)c2ncccc21 [compound 67, reference compound]",783
3,CCCCCCCNC1=C(Cl)C(=O)c2ccccc2C1=O [compound 8],110
4,COCCNC1=C(Cl)C(=O)c2ccccc2C1=O [compound 21],254
5,Cc1ccccc1NC1=C(Cl)C(=O)c2ccccc2C1=O [compound 40],111
6,COC1=C(N(C)C)C(=O)c2ccccc2C1=O [compound 53],446
7,CC1=C(N2CC2)C(=O)c2ccccc2C1=O [compound 55],416
8,COC1=C(N2CC2)C(=O)c2ccccc2C1=O [compound 54],675

# Tested on: Recombinant NADH/NADPH dehydrogenase
# Test: NADH/NADPH dehydrogenase-mediated ROS generation assay
# Type: biochemical
# Settings: 30 μM, 4 h at 37°C; absence of NADH/NADPH dehydrogenase
# Procedure: Recombinant NADH/NADPH dehydrogenase (0.5 units/well) in a 96-well plate was incubated in 100 μl of the assay buffer (50 mM potassium phosphate buffer, pH 7.5 supplemented with 1 mM EDTA) containing NADPH (3 μM) and superoxide dismutase (SOD) (100 units/well) with and without compound (30 μM) for 4 h at 37°C. At the end of incubation, the level of hydrogen peroxide was measured using a Hydrogen Peroxide Assay kit (Cayman). Control samples were without NADH/NADPH dehydrogenase. The rate of NADH/NADPH dehydrogenase- and compound-mediated ROS production was determined by subtracting values that were obtained in the absence of NADPH dehydrogenase. One unit of NADH/NADPH dehydrogenase was defined as the amount of enzyme required to reduce 1.0 μmole cytochrome C per min/mg in the presence of menadione substrate at 37°C. One unit of SOD was defined as the amount of enzyme required to inhibit reduction of cytochrome C by 50% in a coupled system with xanthine oxidase at pH 7.8 at 25°C in a 3.0 mL reaction volume. Xanthine oxidase concentration should produce an initial ΔA550 of 0.025 ± 0.005 per min.
# As the next step, we examined the capability of the selected compounds to generate ROS in the presence or absence of NADH/NADPH dehydrogenase (Table 1). ROS can be generated by NADH/NADPH-dehydrogenase via the one electron reduction of a quinone ring of 1,4-NQs. Unstable half-reduced quinones (semiquinones) transfer electrons to molecular oxygen, thus generating superoxide anion radicals (O2^●-), which are converted by SOD to hydrogen peroxide. We believe that our assay measuring compound’s ability to generate H2O2 in the presence or absence of NADH/NADPH dehydrogenase more closely resembles conditions inside the cell than the assay designed to measure compound’s redox potential values. […] To determine the ability of compounds to induce ROS, compounds were incubated for 4 h at 37°C with and without NADH/NADPH-dehydrogenase in the presence of NADPH as an electron donor and SOD to convert generated superoxide radicals into hydrogen peroxide. At the end of incubation, 10-acetyl-3,7-dihydroxyphenoxazine (ADHP) and horseradish peroxidase (HRP) were added to the reaction and the level of HRP-mediated formation of the fluorogenic product, resorufin, was measured on a plate reader. ROS production was detected in reactions with either the toxic or non-toxic compounds.
row,Compound,"H2O2 generation, NADH/NADPH dehydrogenase - [µM]"
1,CCCC(=O)NC1=C(Cl)C(=O)c2ccccc2C1=O [compound 31],5.7
2,"O=C1C(Nc2ccccc2)=CC(=O)c2ncccc21 [compound 67, reference compound]",5.5
3,CCCCCCCNC1=C(Cl)C(=O)c2ccccc2C1=O [compound 8],2.0
4,COCCNC1=C(Cl)C(=O)c2ccccc2C1=O [compound 21],6.5
5,Cc1ccccc1NC1=C(Cl)C(=O)c2ccccc2C1=O [compound 40],5.0
6,COC1=C(N(C)C)C(=O)c2ccccc2C1=O [compound 53],1.5
7,CC1=C(N2CC2)C(=O)c2ccccc2C1=O [compound 55],2.1
8,COC1=C(N2CC2)C(=O)c2ccccc2C1=O [compound 54],2.4

# Same assay, conditions: 30 μM, 4 h at 37°C; presence of NADH/NADPH dehydrogenase
row,Compound,"H2O2 generation, NADH/NADPH dehydrogenase + [µM]"
1,CCCC(=O)NC1=C(Cl)C(=O)c2ccccc2C1=O [compound 31],9.0
2,"O=C1C(Nc2ccccc2)=CC(=O)c2ncccc21 [compound 67, reference compound]",11.9
3,CCCCCCCNC1=C(Cl)C(=O)c2ccccc2C1=O [compound 8],2.8
4,COCCNC1=C(Cl)C(=O)c2ccccc2C1=O [compound 21],6.4
5,Cc1ccccc1NC1=C(Cl)C(=O)c2ccccc2C1=O [compound 40],2.9
6,COC1=C(N(C)C)C(=O)c2ccccc2C1=O [compound 53],2.5
7,CC1=C(N2CC2)C(=O)c2ccccc2C1=O [compound 55],3.3
8,COC1=C(N2CC2)C(=O)c2ccccc2C1=O [compound 54],3.9

# Biological target: T1, human GAPDH enzyme (Homo sapiens, UniProt P04406)
# T1 construct: endogenous in cells; host or cells: MIA PaCa-2 cells
# T1 sequence (P04406 whole entry): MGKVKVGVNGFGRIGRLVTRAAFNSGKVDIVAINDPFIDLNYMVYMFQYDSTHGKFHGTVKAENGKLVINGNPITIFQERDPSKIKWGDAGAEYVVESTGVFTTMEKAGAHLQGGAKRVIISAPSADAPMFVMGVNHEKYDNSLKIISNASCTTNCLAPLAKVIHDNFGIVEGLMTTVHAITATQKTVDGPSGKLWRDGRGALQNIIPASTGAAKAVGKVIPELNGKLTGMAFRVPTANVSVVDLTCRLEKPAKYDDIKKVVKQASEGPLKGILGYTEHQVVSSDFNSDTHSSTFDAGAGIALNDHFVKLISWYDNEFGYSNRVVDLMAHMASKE
# Test: GAPDH activity assay in MIA PaCa-2 cells
# Type: cell-based
# Settings: 30 μM, 2 h
# Procedure: Cells were incubated for 2 h with either compounds (30 μM) or DMSO in a 6-well plate. Next, cells were collected in 200 μl of PBS and disrupted by sonication. Insoluble material was removed by centrifugation. The level of GAPDH activity was determined by GAPDH activity assay kit (BioVision).
# As a final step, we evaluated the inhibitory activity of the selected compounds against human GAPDH enzyme in a cell-based assay using MIA PaCa-2 cells (Table 1). Cells were pre-incubated with compounds for 2 h at 37°C followed by cell lysis using sonication and GAPDH activity assay. The ability of compounds to inhibit GAPDH was expressed as percentage of GAPDH residual activity with respect to DMSO-treated cells. […] Similar to the GSR activity assay, only two of the most toxic compounds 31 and 32, were able to inhibit GAPDH by 95 and 97%, respectively.
row,Compound,inhibition of GAPDH
1,CCCC(=O)NC1=C(Cl)C(=O)c2ccccc2C1=O [compound 31],almost completely inhibited GAPDH

# Same assay, conditions: 2 h
row,Compound,inhibition at 30 µM [%]
1,CCCC(=O)NC1=C(Cl)C(=O)c2ccccc2C1=O [compound 31],95

# Same assay, conditions: 2 h, read-out: GAPDH, enzyme residual activity as compared to DMSO-treated sample
row,Compound,remaining activity at 30 µM [%]
1,CCCC(=O)NC1=C(Cl)C(=O)c2ccccc2C1=O [compound 31],5
2,"O=C1C(Nc2ccccc2)=CC(=O)c2ncccc21 [compound 67, reference compound]",76
3,CCCCCCCNC1=C(Cl)C(=O)c2ccccc2C1=O [compound 8],100
4,COCCNC1=C(Cl)C(=O)c2ccccc2C1=O [compound 21],100
5,Cc1ccccc1NC1=C(Cl)C(=O)c2ccccc2C1=O [compound 40],88
6,COC1=C(N(C)C)C(=O)c2ccccc2C1=O [compound 53],95
7,CC1=C(N2CC2)C(=O)c2ccccc2C1=O [compound 55],100
8,COC1=C(N2CC2)C(=O)c2ccccc2C1=O [compound 54],73

# Tested on: human primary hepatocytes
# Test: cells
# Settings: Hepatocyte, read-out: EC50, μM Hepatocytes
# Excerpt: (§1) We selected hepatocytes as normal cells because hepatocytes are mediate toxicity to multiple drugs and are used as a standard to assess toxicity of drugs in vitro [28]. […] For comparison with the standard of care, doxorubicin was also included in this analysis.
row,Compound,EC50 [µM]
1,CCCC(=O)NC1=C(Cl)C(=O)c2ccccc2C1=O [compound 31],1.6
2,"O=C1C(Nc2ccccc2)=CC(=O)c2ncccc21 [compound 67, reference compound]",17.8
3,CCCCCCCNC1=C(Cl)C(=O)c2ccccc2C1=O [compound 8],78.6
4,COCCNC1=C(Cl)C(=O)c2ccccc2C1=O [compound 21],60.4
5,Cc1ccccc1NC1=C(Cl)C(=O)c2ccccc2C1=O [compound 40],24.5
6,COC1=C(N(C)C)C(=O)c2ccccc2C1=O [compound 53],> 90
7,CC1=C(N2CC2)C(=O)c2ccccc2C1=O [compound 55],> 90
8,COC1=C(N2CC2)C(=O)c2ccccc2C1=O [compound 54],> 90

# Tested on: not listed separately
# Test: in vitro
# Settings: human
# Excerpt: as §1
row,Compound,CC50 [µM]
1,CC1=C(N2CC2)C(=O)c2ccccc2C1=O [compound 55],> 90

# Same assay, conditions: human, primary hepatocytes
row,Compound,CC50 [µM]
1,CCCC(=O)NC1=C(Cl)C(=O)c2ccccc2C1=O [compound 31],1.6
2,"O=C1C(Nc2ccccc2)=CC(=O)c2ncccc21 [compound 67, reference compound]",17.8
3,CCCCCCCNC1=C(Cl)C(=O)c2ccccc2C1=O [compound 8],78.6
4,COCCNC1=C(Cl)C(=O)c2ccccc2C1=O [compound 21],60.4
5,Cc1ccccc1NC1=C(Cl)C(=O)c2ccccc2C1=O [compound 40],24.5

# Tested on: Complex I (bovine heart mitochondria)
# Test: MitoCheck Complex I activity assay
# Settings: 30 μM
# Procedure: MitoCheck Complex I activity was determined as described in the manual of the manufacturer’s manual (Cayman). Briefly, compounds (30 μM) or DMSO were mixed with the Complex I activity assay buffer that contained bovine heart mitochondria reagent, NADH, and ubiquinone in the presence of KCN to inhibit complex IV activity. The level of Complex I activity was monitored in a kinetic assay of NADH oxidation by measuring a decrease in absorbance at 340 nm. The residual Complex I activity was calculated by dividing the rate of compound wells by the rate of DMSO wells for the linear portion of the curve.
# To test possible effects of compounds on ETC, we analyzed the Complex I-mediated NADH oxidation using a MitoCheck Complex I Activity Assay Kit. The level of NADH oxidation was measured by a decrease in absorbance at 340 nm and expressed as percentage of residual activity in relation to DMSO-treated mitochondria (Table 1). […] Complex I activity was estimated by the rate of NADH oxidation which was also affected by NADH/NADPH-dehydrogenase-mediated redox cycling.
row,Compound,stimulation of Complex I activity
1,CCCC(=O)NC1=C(Cl)C(=O)c2ccccc2C1=O [compound 31],more than 30%

# Same assay, conditions: 30 μM; bovine heart mitochondria; NADH oxidation
row,Compound,"Mito Check I, enzyme residual activity as compared to DMSO-treated sample [%]"
1,CCCC(=O)NC1=C(Cl)C(=O)c2ccccc2C1=O [compound 31],159
2,"O=C1C(Nc2ccccc2)=CC(=O)c2ncccc21 [compound 67, reference compound]",116
3,CCCCCCCNC1=C(Cl)C(=O)c2ccccc2C1=O [compound 8],116
4,COCCNC1=C(Cl)C(=O)c2ccccc2C1=O [compound 21],104
5,Cc1ccccc1NC1=C(Cl)C(=O)c2ccccc2C1=O [compound 40],103
6,COC1=C(N(C)C)C(=O)c2ccccc2C1=O [compound 53],51
7,CC1=C(N2CC2)C(=O)c2ccccc2C1=O [compound 55],72
8,COC1=C(N2CC2)C(=O)c2ccccc2C1=O [compound 54],84
